No end group written: not given here.

Experimental findings from patent US8901071B2, “Compounds and their use” (Novabiotics Limited, priority 2010, dated 2014) are described below.

Data set [1] has as its system P. aeruginosa bacterial biofilms. The data set can be described thus: bacterial biofilm assay, Example 2 (optical density at 625 nm; FIGS. 3-4). It is filed as cell-based. To be noted: biofilm grown 18 hours, 24 hours incubation, 0 to 1 mg/ml, combinations in equal concentration. Here is the method: (§1) P. aeruginosa bacterial biofilms and S. aureus bacterial biofilms were grown in Mueller-Hinton agar in separate 96-well microtitre plates for 18 hours at 37 degrees Celsius. The planktonic cells and medium were then removed and the bacterial biofilms were washed three times with phosphate buffer solution at a pH of around 7. Two-fold dilutions of three different antimicrobial agents in Mueller Hinton broth were then added to the bacterial biofilms. The microtitre plates were incubated at 37 degrees Celsius for 24 hours. The medium was then transferred to a fresh microtitre plate and the optical density of the bacterial biofilm was measured at 625 nm on a microtitre plate reader (BioTek Powerwave, X S, Winooski, USA.
(§2) The antimicrobial agents tested were NP432 alone, a combination of NP432 and NM001 in equal concentration, a combination of NP432 and NP 108 in equal concentration, NP445 alone, a combination of NP445 and NM001 in equal concentration, a combination of NP445 and NP 108 in equal concentration. The antimicrobial agents were tested at concentrations of 0 to 1 mg/ml against P. aeruginosa bacterial biofilms and S. aureus bacterial biofilms.

In data set [2] the test system is S. aureus bacterial biofilms. The data set can be described thus: bacterial biofilm assay, Example 2 (optical density at 625 nm; FIGS. 5-6). It is filed as cell-based. The conditions noted are these: biofilm grown 18 hours, 24 hours incubation, 0 to 1 mg/ml, combinations in equal concentration. Here is the method:
as §1, §2

In another data set the test system is mice. The data set can be described thus: lethality of peptide in mice. The format is in vivo. To be noted: dose of around 5 mg/kg.

In the case of “KKFPWRLRLRYGRR (sythetic peptide) [NP445]”, the “antimicrobial effect against P. aeruginosa bacterial biofilms” value in data set [1] was “antimicrobial effect”. In data set [2], the “antimicrobial effect against S. aureus bacterial biofilm” value is listed as “antimicrobial effect”.

Turning to RRRFRFFFRFRRR [NP432, RRRFRFFFRFRRR], the lethality to mice entry in the data set on mice was “non-lethal”.
